Source: patent US11680078B2, “Anticancer compounds” (GODAVARI BIOREFINERIES LIMITED, priority 2017, dated 2023)
Read-outs that look alike come from different tables or passages of the source.

What was measured:
[1] = tested on: MCF7; assay: MTT antiproliferative assay, MCF7; assay type: cell-based; conditions: Homo sapiens, MCF7; MCF-7 breast cell line, 48 hrs drug incubation
Description: (§1) MTT assay is a simple and sensitive assay where, metabolic reducing activity of the cells is measured. The increase of this activity in time is taken as a parameter of cell growth. If treatment with a drug impairs this increase, the action may be a consequence of growth inhibition, cell killing or both. The compounds of Formula V to XIV of the present invention, standard cytotoxic drug (e.g. Cisplatin) were tested at different concentrations (1, 0.1, 0.01, 0.001 mM) using breast and prostate cancer cell lines. All cell lines were cultured in a 37° C. incubator with a 5% CO2 environment. Compounds were dissolved in DMSO with a concentration of 0.1M (stock solution). Cells were seeded into 96-well plates at suitable plating efficiency.
(§2) Following Plating Efficiencies were Standardized for MTT Assay:
(§3) The MTT procedure followed was as follows. Briefly, the cells were plated in 96 well plate as per predetermined plating efficiency (Table 1) The plates were then incubated for 24 hrs in 5% CO2 atmosphere at 37° C. Appropriate concentrations of the drugs were then added to the plate and further incubation was carried out for 48 hrs (in 5% CO2 atmosphere at 37° C.). The assay plate was then centrifuged twice at 3000 rpm for 3 mins and supernatant was then discarded. 100 ul of MTT solution (0.5 mg/ml) was then added to each well of the plate and it was further incubated for 4 hrs (in 5% CO2 atmosphere at 37° C.) Following 4 hr incubation, the plate was then centrifuged twice, and supernatant was aspirated off very carefully. 200 ul of DMSO was then added to each well to solubilize. MTT crystals and mixed well by shaking the plate. XY graph of log Percent viability was then plotted against log drug concentration. […] (Drug concentration inhibiting the 50% of cell population) was then calculated by regression analysis.

[2] = tested on: MDAMB231; assay: MTT antiproliferative assay, MDAMB231; assay type: cell-based; conditions: Homo sapiens, MDA-MB-231; MDAMB231 breast cell line, 48 hrs drug incubation
Description: as §1, §2, §3

[3] = tested on: PC3; assay: MTT antiproliferative assay, PC3; assay type: cell-based; conditions: Homo sapiens, PC-3; PC3 prostate cell line, 48 hrs drug incubation
Description: as §1, §2, §3

[4] = tested on: DU145; assay: MTT antiproliferative assay, DU145; assay type: cell-based; conditions: Homo sapiens, DU-145; DU145 prostate cell line, 48 hrs drug incubation
Description: as §1, §2, §3

[5] = tested on: MDAMB231; assay: Soft Agar colony-formation Assay, MDAMB231; assay type: cell-based; conditions: Homo sapiens, MDA-MB-231, 168 h; MDAMB231 breast cell line, 1 week
Description: (§4) The Soft Agar Colony-formation Assay is an anchorage-independent growth assay in soft agar, which is one of the most stringent assays for detecting malignant transformation of cells. For this assay, malignant cells are cultured with appropriate controls in soft agar medium for 1-2 weeks. Following this incubation period, formed colonies can either be analyzed morphologically using cell stain and quantifying the number of colonies formed.
(§5) Briefly, for Soft Agar Assay a mixture of 50 ul of 2× medium (taken appropriately as per cell line) and 50 ul of 1.2% Bacto Agar were plated on to each well of 96 well micro titer assay plate. 10 ul of cells (Of specific plating efficiency pre-standardized for respective cell line) were mixed with 20 ul of 2× medium and 30 ul of 0.8% of Bacto Agar and 1.6 ul of drug (of appropriate concentration) in a vial and transferred to the solidified pre-layers of the assay plates. The cells were then allowed to grow and form colonies at 37° C. and 5% CO2 for 1 week. An intermittent feeding with 50 ul of appropriate 2× medium was performed after 3 days of experimental set up. 16 ul of Alamar Blue (1.5 mg/ml) was then added to all the wells to quantify the developed colonies. The plates were incubated for 24 hrs at 37° C. Absorbance was then measured at 630 nm. XY graph of log Percent viability was then plotted against log drug concentration. IC50 (Drug concentration inhibiting the 50% of cell population) was then calculated by regression analysis.
(§6) Following Plating Efficiencies Were Standardized for Soft Agar Assay: […]

[6] = tested on: PC3; assay: Soft Agar colony-formation Assay, PC3; assay type: cell-based; conditions: Homo sapiens, PC-3, 168 h; PC3 prostate cell line, 1 week
Description: as §4, §5, §6

[7] = tested on: spheres of MDAMB231; assay: In vitro sphere-forming assay, MDAMB231 in Mammosphere media; assay type: cell-based; conditions: 2000 cells/well, n = 6 ± S.D
Source text: (§7) Sphere assay measures the ability of Cancer Stein Cells to form spheres in specially designed serum-free medium. We have used this assay to measure the killing efficiency of the test compounds as compared to the standard chemotherapeutic drug, Cisplatin.
(§8) Materials and Reagents:50× B27 Supplement (Life Technologies, Invitrogen, Catalog No.: 17502-044), Fibroblast Growth Factor (FGF) (Sigma-Aldrich, Catlog No.: F029125), Epidermal Growth Factor (EGF) (Sigma-Aldrich, Catlog No.: E9644), Insulin (Sigma, Catlog No.: 19278), Dulbecco's Modified Eagle Medium/F12 (HiMedia Catlog No.: AL139-6), Dulbecco's Phosphate Buffered Saline (HiMedia Catlog No.: TL1006), Trypan Blue (TC193), Prostate Epithelial Media (LONZA, Catlog No.: CC-3166) MEGM (LONZA, Catlog No.: CC-3051), Heparin (Sigma, Catlog No.: H3393), Penstrep (HiMedia, Catlog No.: A002)
Mammosphere Media Preparation (For 100 mL): 1 g methyl cellulose autoclaved with magnetic stirrer Plain media (MEBM), 100 mL added and dissolved under magnetic stirring. After complete dissolution, add: FGF-80 μL, EGF-40 μL, Penstrep-1 mL, Heparin-400 μL.
(§9) Procedure: —The cells were trypsinised and made into single-cell suspension by passing through cell strainers ([…], respectively), The cells were diluted at the concentration of 2000 cells/100 μL and suspended in either Mammosphere (for breast cell lines) or Prostosphere (for prostate cell lines). 100 μL of this suspension was added into each well of 96-well suspension plates and incubated at 37° C., 5% CO2 for 24 hrs. Appropriate concentrations of the drugs (2 μL) were added into respective wells with 100 μL of stem cell culture medium. Plates were incubated at 37° C., 5% CO2 for 72 hrs. After incubation 2.5 μL of the respective drug concentration and 50 μL of stem cell culture medium were added into each well and the plates were further incubated at 37° C., 5% CO2 for 72 hrs. 3 μL of the respective drug concentration was added with 50 μL of stem cell culture medium again after incubation and plates were incubated again for 72 hrs at 37° C., 5% CO2. Number of primary spheres formed for each concentration was counted. A comparative graph of number of spheres formed was plotted against the concentration and the growth curve was compared with the positive control.

[8] = tested on: spheres of PC3; assay: In vitro sphere-forming assay, PC3 in Prostosphere media; assay type: cell-based; conditions: 2000 cells/well, n = 6 ± S.D
Source text: as §7, §8
Prostosphere Media Preparation (For 100 mL):1 g methyl cellulose autoclaved with magnetic stirrer, Plain media (Prostate Epithelial Basal Medium), 100 mL added and dissolved, under magnetic stirring. After complete dissolution, add: Insulin-40 μL, B27-2 mL, EGF-80 μL, Penstrep-1 ml.
as §9

[9] = tested on: normal lymphocytes; assay: Normal cell assay (MTT) on lymphocytes from a healthy donor
Description: (§10) In order to test the activity of cytotoxic drugs towards normal cells, we performed MTT
(§11) Assay for these cytotoxic drugs using lymphocytes obtained from a healthy donor.
(§12) Briefly, diluted defibrinated fresh blood was overlaid gradually on HiSeP LSM1077 and centrifuged at low speed for 30 mins. The lymphocyte layer (the buffy coat) (Fig) was carefully removed in a new collection tube. The buffy coat was given another wash, by the diluent buffer, to reduce the platelet contamination. The supernatant was discarded, and the pellet was resuspended in diluent buffer. The viability was checked by Haemocytometer. Cells with Viability and Purity of 95% and more were considered for the assay. MTT assay was performed with these cells as described above with plating efficiency of 0.7 million/ml.

[10] = tested on: normal lymphocytes
Description: as §10, §11, §12

Structure (SMILES) | IC50 [1] [µM] | IC50 [2] [µM] | IC50 [3] [µM] | IC50 [4] [µM] | IC50 [5] [µM] | IC50 [6] [µM] | 3D sphere count of MDAMB231 ([7]; drug conc 0.025 uM) | 3D sphere count of MDAMB231 ([7]; drug conc 0.25 uM) | 3D sphere count of MDAMB231 ([7]; drug conc 2.5 uM) | 3D sphere count of MDAMB231 ([7]; drug conc 25 uM) | 3D sphere count of MDAMB231 ([7]; drug conc 250 uM) | 3D sphere count of PC3 ([8]; drug conc 0.025 uM) | 3D sphere count of PC3 ([8]; drug conc 0.25 uM) | 3D sphere count of PC3 ([8]; drug conc 2.5 uM) | 3D sphere count of PC3 ([8]; drug conc 25 uM) | 3D sphere count of PC3 ([8]; drug conc 250 uM) | activity on normal lymphocytes [9] | activity on normal lymphocytes [10]
COc1cc2c(OC(=O)c3cccn3C)c3c(c(-c4ccc5c(c4)OCO5)c2cc1OC)C(=O)OC3 [Formula VII, 9-(benzo[d][1,3]dioxol-5-yl)-6,7-dimethoxy-1-oxo-1,3-dihydronaphtho[2,3-c]furan-4-yl 1-methyl-1H-pyrrole-2-carboxylate] | 2.78 | 2.04 | 6.32 | 3.57 | 7.91 | 0.36 | 47(±4) | 46(±7) | 40(±7) | 40(±3) | 0(±0) | 64(±8) | 31(±5) | 23(±3) | 9(±2) | 0(±0) | does not show activity | 
Cn1cccc1C(=O)Oc1ccc(-c2ccc3c(c2)OCO3)c2ccccc12 [Formula X, 1-(benzo[d][1,3]dioxol-5-yl)naphthalen-4-yl 1-methyl-1H-pyrrole-2-carboxylate] | 3.46 | 3.16 | 2.6 | 3.28 | 2.07 | 2.38 | 39(±4) | 37(±4) | 28(±3) | 24(±3) | 0(±0) |  |  |  |  |  | does not show activity | 
CO[C@H]1[C@H](OC)COC(Oc2ccc(-c3ccc4c(c3)OCO4)c3ccccc23)[C@@H]1O (stereo partly drawn) [Formula V, (3R,4R,5R)-2-(4-(benzo[d][1,3]dioxol-5-yl)naphthalen-1-yloxy)-4,5-dimethoxy-tetrahydro-2H-pyran-3-ol] |  | 4.61 | 6.19 |  | 3.45 | 10.6 | 40(±3) | 24(±3) | 12(±1) | 7(±2) | 0(±0) | 50(±5) | 40(±5) | 36(±3) | 21(±4) | 0(±0) |  | does not show activity
CCOC(=O)c1c(C(=O)OCC)c(-c2ccc3c(c2)OCO3)c2cc(OC)c(OC)cc2c1OC1OC[C@@H](OC)[C@H](OC)[C@H]1O (stereo partly drawn) [Formula VI, diethyl 1-(benzo[d][1,3]dioxol-5-yl)-4-((3R,4R,5R)-3-hydroxy-4,5-dimethoxy-tetrahydro-2H-pyran-2-yloxy)-6,7-dimethoxynaphthalene-2,3-dicarboxylate] |  | 10.1 | 5.65 |  | 14.2 | 3.25 | 44(±3) | 36(±2) | 24(±3) | 7(±2) | 0(±0) | 40(±3) | 28(±2) | 30(±2) | 21(±2) | 0(±0) | does not show activity | 
COc1cc2c(OC(=O)C(c3ccccc3)C3CCCC3)c3c(c(-c4ccc5c(c4)OCO5)c2cc1OC)C(=O)OC3 (stereo not shown) [Formula VIII, 9-(benzo[d][1,3]dioxol-5-yl)-6,7-dimethoxy-1-oxo-1,3-dihydronaphtho[2,3-c]furan-4-yl 2-cyclopentyl-2-phenylacetate] | 1.05 | 3.14 | 3.91 | 4.28 | 1.32 | 1.96 | 36(±3) | 29(±4) | 13(±2) | 8(±2) | 0(±0) | 29(±3) | 24(±3) | 13(±3) | 8(±2) | 0(±0) | does not show activity | 
